For assay [1], the target named is T1, Adenosine receptor A2b (Homo sapiens, UniProt P29275).
T1 sequence (P29275 whole entry): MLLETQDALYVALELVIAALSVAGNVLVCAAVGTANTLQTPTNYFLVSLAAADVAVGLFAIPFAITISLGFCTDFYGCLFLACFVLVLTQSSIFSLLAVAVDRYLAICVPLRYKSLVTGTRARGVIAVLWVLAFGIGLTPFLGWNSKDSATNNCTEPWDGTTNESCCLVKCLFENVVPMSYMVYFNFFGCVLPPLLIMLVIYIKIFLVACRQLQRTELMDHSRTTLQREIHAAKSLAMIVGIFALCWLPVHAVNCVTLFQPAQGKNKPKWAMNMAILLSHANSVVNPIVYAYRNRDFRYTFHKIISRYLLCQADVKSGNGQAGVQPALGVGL
Description: Inhibitory activity against cAMP production in CHO cells transfected with human A2B adenosine receptor. The format is functional, cell-based. For orientation: cAMP levels reflect the balance of adenylyl cyclase and phosphodiesterase activity.

The target in the next assay is T2, Adenosine receptor A1 (Homo sapiens, UniProt P30542).
T2 sequence (P30542 whole entry): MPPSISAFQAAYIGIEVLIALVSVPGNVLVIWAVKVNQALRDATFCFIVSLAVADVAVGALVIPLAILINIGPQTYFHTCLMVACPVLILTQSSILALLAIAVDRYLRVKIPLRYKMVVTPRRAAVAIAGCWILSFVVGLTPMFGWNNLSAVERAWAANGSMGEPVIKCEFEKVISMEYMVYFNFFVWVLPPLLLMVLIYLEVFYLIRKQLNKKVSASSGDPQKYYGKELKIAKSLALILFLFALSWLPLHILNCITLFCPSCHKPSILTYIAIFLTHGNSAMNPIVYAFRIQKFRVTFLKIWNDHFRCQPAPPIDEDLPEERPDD
Description: Displacement of specific [3H]DPCPX binding at human adenosine A1 receptor expressed in CHO cells. The format is cell-based.

For assay [2], the target named is T1, Adenosine receptor A2b. The experiment in a line: Binding affinity of compound for displacement of [3H]DPCPX binding in HEK293 membranes expressing human A2B adenosine receptors. Background: Loss of bound radioactivity is the signal in a displacement assay; it reports binding, not function.
For assay [3], the target named is T1, Adenosine receptor A2b. The experiment in a line: Binding affinity of compound for displacement of specific [3H]- DPCPX binding at human A2B receptors expressed in HEK293 cells. In kind it is cell-based.
Another assay addresses T3, Adenosine receptor A3 (Homo sapiens, UniProt P0DMS8).
T3 sequence (P0DMS8 whole entry): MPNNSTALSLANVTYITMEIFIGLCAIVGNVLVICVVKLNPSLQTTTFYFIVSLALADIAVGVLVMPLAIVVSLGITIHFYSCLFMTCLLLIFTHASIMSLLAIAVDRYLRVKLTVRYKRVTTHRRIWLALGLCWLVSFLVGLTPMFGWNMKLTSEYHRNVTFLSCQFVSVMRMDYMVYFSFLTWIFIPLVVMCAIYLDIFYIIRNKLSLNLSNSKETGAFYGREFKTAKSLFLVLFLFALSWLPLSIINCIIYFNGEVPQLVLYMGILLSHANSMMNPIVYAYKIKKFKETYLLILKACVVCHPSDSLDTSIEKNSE
The experiment in a line: Binding affinity of compound for displacement of specific [3H]MRE3008-F20 binding at human A3 receptors expressed in CHO cells. The format is cell-based.

The target in another assay is Adenosine receptor A2a (Homo sapiens, UniProt P29274). Description: Binding affinity of compound for displacement of specific [3H]ZM-241385 binding at human adenosine A2A receptor expressed in CHO cells. The format is cell-based.

Where “and” joins values, the source holds several entries; their conditions need not be identical. Equal entries are not always repeated. Bounds are passed on as bounds.

Adenosine receptor A2a, sequence (P29274 whole entry): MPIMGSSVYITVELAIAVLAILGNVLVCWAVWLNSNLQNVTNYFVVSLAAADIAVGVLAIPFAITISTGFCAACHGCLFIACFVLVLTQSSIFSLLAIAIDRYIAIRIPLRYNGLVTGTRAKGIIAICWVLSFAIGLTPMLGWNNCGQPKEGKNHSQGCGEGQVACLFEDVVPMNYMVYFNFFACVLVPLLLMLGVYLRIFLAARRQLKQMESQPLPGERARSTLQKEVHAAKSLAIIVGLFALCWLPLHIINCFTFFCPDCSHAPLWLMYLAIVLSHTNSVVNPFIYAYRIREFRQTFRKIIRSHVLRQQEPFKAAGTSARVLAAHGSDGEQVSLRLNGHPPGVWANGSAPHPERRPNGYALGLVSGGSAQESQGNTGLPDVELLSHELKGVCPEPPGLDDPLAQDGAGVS

One may read the IC50 as the concentration at which inhibition is half-maximal. Lower therefore signals higher potency. As a reminder, the Ki is the dissociation constant of the complex between target and ligand, obtained from inhibition or displacement. Higher therefore signals a looser hold on the target. For `C=CCn1c(=O)c2[nH]c(-c3cc(OCC(=O)N4CCN(c5ccccc5)CC4)nn3C)nc2n(CC=C)c1=O`, at Adenosine receptor A2b [1], the IC50 was found to be 0.081 µM. The Ki at Adenosine receptor A1 was more than 1 µM; at Adenosine receptor A2b [2], 0.024 µM.

For `CCCn1c(=O)c2[nH]c(-c3cc(OCC(=O)Nc4ccc(C(=O)OCC)cc4)nn3C)nc2n(CCC)c1=O`, the concentration for half-maximal inhibition (IC50) on Adenosine receptor A2b [1] was determined as 0.12 µM. Moreover, the results for the Ki on Adenosine receptor A1 and at Adenosine receptor A2b [2] were more than 1 µM and 0.032 µM, respectively.

Compound `CCCn1c(=O)c2[nH]c(-c3cc(NC(=O)Cc4ccc(OCc5ccccc5)cc4)nn3C)nc2n(CCC)c1=O` displayed an IC50 against Adenosine receptor A2b [1] of 0.185 µM. Besides, the Ki was more than 1 µM at Adenosine receptor A1 and 0.056 µM at Adenosine receptor A2b [2].

Turning to `CCCn1c(=O)c2[nH]c(-c3cc(OCC(=O)N4CCN(C)CC4)nn3C)nc2n(CCC)c1=O`, the Ki was 0.076 µM at Adenosine receptor A2b [3], more than 1 µM on Adenosine receptor A1, more than 1 µM on Adenosine receptor A1 (cho) and 0.076 µM on Adenosine receptor A2b [2]. The IC50 against Adenosine receptor A2b [1] was 0.322 µM.

On to `Cn1nc(-c2nc3c([nH]2)c(=O)n(C)c(=O)n3C)cc1N`, for which the inhibition constant (Ki) at Adenosine receptor A3 is more than 1 µM; on Adenosine receptor A2b [3], 0.175 µM; on Adenosine receptor A2a, more than 1 µM; on Adenosine receptor A1, more than 1 µM.

Regarding `CCCn1c(=O)c2[nH]c(-c3cc(NC(=O)Cc4ccccc4)n(C)n3)nc2n(CCC)c1=O`, the Ki is more than 1 µM on Adenosine receptor A3, more than 1 µM on Adenosine receptor A2a and 0.034 µM on Adenosine receptor A2b [2].

In the case of `CCCn1c(=O)c2[nH]c(-c3cc(OCC(=O)Nc4ccc(C(C)=O)cc4)nn3C)nc2n(CCC)c1=O`, the Ki on Adenosine receptor A3, at Adenosine receptor A2a and on Adenosine receptor A1 was more than 1 µM throughout.

As for `CCCn1c(=O)c2[nH]c(-c3ccc(NC(=O)Cc4ccccc4)cc3)nc2n(CCC)c1=O`, the Ki on Adenosine receptor A3 was more than 1 µM; on Adenosine receptor A2b [3] it was 0.649 µM; at Adenosine receptor A2a it was more than 1 µM; at Adenosine receptor A1 it was more than 1 µM.

On Adenosine receptor A2b [3], `CCCn1c(=O)c2[nH]c(-c3cc(NC(=O)Cc4ccc(C(F)(F)F)cc4)nn3C)nc2n(CCC)c1=O` had a Ki of 0.13 µM.

In the case of `CCCn1c(=O)c2[nH]c(-c3ccc(NC(=O)Nc4cccc(OC)c4)cc3)nc2n(CCC)c1=O`, the Ki on Adenosine receptor A3 is more than 1 µM; at Adenosine receptor A2b [3], 0.058 µM; at Adenosine receptor A2a, more than 1 µM; at Adenosine receptor A1 it was 1.17 µM.

In the case of `CCCn1c(=O)c2nc(-c3cc(OCC(=O)Nc4ccc5c(c4)OCO5)no3)[nH]c2n(CCC)c1=O`, the Ki at Adenosine receptor A3 is more than 1 µM; at Adenosine receptor A2b [3] it was 0.047 µM; at Adenosine receptor A2a it was more than 1 µM; on Adenosine receptor A1, more than 1 µM; on Adenosine receptor A2b [2] it was 0.047 µM. The compound further had an IC50 on Adenosine receptor A2b [1] of 0.14 µM.

Consider `CCCn1c(=O)c2nc(-c3ccc(N)cc3)[nH]c2n(CCC)c1=O`, for which the Ki at Adenosine receptor A3 is more than 1 µM; at Adenosine receptor A2b [3], 0.009 µM; at Adenosine receptor A2a, more than 1 µM; at Adenosine receptor A1, 0.065 µM.

Turning to `CCCn1c(=O)c2nc(-c3ccc(NC(=O)Nc4cccc(Cl)c4)cc3)[nH]c2n(CCC)c1=O`, the Ki at Adenosine receptor A3 was more than 1 µM; at Adenosine receptor A2b [3], 0.11 µM; at Adenosine receptor A2a, more than 1 µM; on Adenosine receptor A1, 1.36 µM.

`CCCn1c(=O)c2[nH]c(-c3cc(NC(=O)Cc4cc(OC)c(OC)c(OC)c4)nn3C)nc2n(CCC)c1=O`: the Ki on Adenosine receptor A3, at Adenosine receptor A2b [3], at Adenosine receptor A2a and at Adenosine receptor A1 was more than 1 µM throughout.

`CCCn1c(=O)c2[nH]c(-c3cc(NC(=O)Cc4cccc(F)c4)nn3C)nc2n(CCC)c1=O` had an IC50 against Adenosine receptor A2b [1] of 0.16 µM. This compound came in with a Ki at Adenosine receptor A2b [2] of 0.05 µM.

The compound `CCCn1c(=O)c2[nH]c(-c3cc(OCC(=O)Nc4ccc(Cl)c(Cl)c4)nn3C)nc2n(CCC)c1=O` returned an IC50 against Adenosine receptor A2b [1] of 0.06 µM. This compound also yielded a Ki on Adenosine receptor A2b [2] of 0.016 µM.

`CCCn1c(=O)c2c(nc(-c3ccc(N)cc3)n2C)n(CCC)c1=O`: the Ki on Adenosine receptor A3 was more than 1 µM; on Adenosine receptor A2b [3], 0.516 µM; at Adenosine receptor A2a it was more than 1 µM; on Adenosine receptor A1 it was more than 1 µM.

`CCCn1c(=O)c2[nH]c(-c3cc(NC(=O)Cc4ccc(F)c(F)c4)nn3C)nc2n(CCC)c1=O` came in with a Ki on Adenosine receptor A2b [3] of 0.078 µM.

Consider `CCCn1c(=O)c2[nH]c(-c3cc(OCC(=O)Nc4ccc(OC)c(OC)c4)nn3C)nc2n(CCC)c1=O`, for which, at Adenosine receptor A2b [1], the 50% inhibitory concentration (IC50) is 0.046 µM. Moreover, the Ki at Adenosine receptor A1 was more than 1 µM; on Adenosine receptor A2b [2], 0.012 µM.

With `CCCn1c(=O)c2[nH]c(-c3cc(OCC(=O)N4CCN(c5ccccc5)CC4)nn3C)nc2n(CCC)c1=O`, the Ki on Adenosine receptor A2b [3] is 0.012 µM; at Adenosine receptor A1, 0.26 µM; on Adenosine receptor A2b [2] it was 0.012 µM and 0.015 µM. Moreover, the IC50 at Adenosine receptor A2b [1] was 0.07 µM and 0.065 µM.

In turn, `CCCn1c(=O)c2[nH]c(-c3cc(OCC(=O)Nc4ccc(C)c(C)c4)nn3C)nc2n(CCC)c1=O` registered a 50% inhibitory concentration (IC50) against Adenosine receptor A2b [1] of 0.04 µM. Also, the Ki at Adenosine receptor A2b [2] worked out at 0.01 µM.

As for `CCCn1c(=O)c2[nH]c(-c3cc(OCC(=O)Nc4ccc(C)cc4)nn3C)nc2n(CCC)c1=O`, half-maximal inhibition against Adenosine receptor A2b [1] (IC50) required 0.075 µM. The Ki at Adenosine receptor A2b [2] worked out at 0.019 µM.

At Adenosine receptor A2b [1], `CCCn1c(=O)c2[nH]c(-c3cc(OCC(=O)Nc4ccc(C(=O)O)cc4)nn3C)nc2n(CCC)c1=O` had an IC50 of 0.115 µM. The results for the Ki at Adenosine receptor A1 and at Adenosine receptor A2b [2] were more than 1 µM and 0.036 µM, respectively.

Take `CCCn1c(=O)c2[nH]c(-c3ccc(NC(=O)Cc4ccc(OC)c(OC)c4)cc3)nc2n(CCC)c1=O`: the Ki is more than 1 µM at Adenosine receptor A3, 0.095 µM at Adenosine receptor A2b [3], more than 1 µM at Adenosine receptor A2a and 1.73 µM at Adenosine receptor A1.

As to `CCCn1c(=O)c2[nH]c(-c3cc(OCC(=O)Nc4ccc(C)cn4)nn3C)nc2n(CCC)c1=O`, the Ki on Adenosine receptor A3 was more than 1 µM; on Adenosine receptor A2b [3] it was 1.01 µM; at Adenosine receptor A2a, more than 1 µM; at Adenosine receptor A1, more than 1 µM.

In turn, `CCCn1c(=O)c2[nH]c(-c3ccc(OCC(=O)Nc4ccc(I)cc4)nc3)nc2n(CCC)c1=O` gave an IC50 against Adenosine receptor A2b [1] of 0.477 µM. Also, the inhibition constant (Ki) is more than 1 µM at Adenosine receptor A1 and 0.108 µM on Adenosine receptor A2b [2].

The record behind these values is ChEMBL document CHEMBL1148292 (J Med Chem, 2004).
